Measurements reported in patent publication US20230212129A1, “QUINAZOLINE DERIVATIVES USEFUL AS SELECTIVE HDAC6 INHIBITORS” (AnnJi Pharmaceutical Co., Ltd., priority 2020, published 2023).

Columns and labels:
HDAC1 = biological target: T1, HDAC1 (Homo sapiens, UniProt Q13547); assay: HDAC1 activity, acetylated-AMC-labeled peptide substrate; format: biochemical
T1 construct: GST (C); host or cells: baculovirus expression system, Sf9 insect cells (SP9 [sic])
Method: (§1) The activities of HDAC 1 and 6 were measured by using an acetylated-AMC-labeled peptide substrate, a fluorogenic peptide from p53 residues 379-382 (RHIKKAc). The proteins involved in the assay are as the followings (1) Human HIDAC1 (Genflank Accession No. NM_004964): Full length with C-terminal GST tag, MW=79.9 kDa, expressed by baculovirus expression system in SP9 cells; and (2) Human HIDAC6 (Genflank Accession No. BC069243): Full length with N-terminal GST tag, MW=159 kDa, expressed by baculovirus expression system in Sf9 cells.

[1] = Oral pharmacokinetics (Table II); parameters: AUC: concentration or dose not given beside the values; conditions: in vivo
[2] = test system: dorsal root ganglion (DRG) cells; assay: DRG neurite outgrowth after paclitaxel-induced damage; format: cell-based, C57BL/6J mice; conditions: 0.1 μM and 1 μM, 24 hours prior to 24-hour 0.1 μM paclitaxel; FIG. 1
Method: (§2) To investigate the effect of HDAC6 inhibitors in neuron protection and neuron regeneration, the recovery of dorsal root ganglion (DRG) cells post-paclitaxel injury was tested. Dorsal root ganglion was extracted from 7 week-old female C57BL/6J mice and incubated with HDAC6 inhibitors (compounds COMPOUND 33, COMPOUND 34, or COMPOUND 2) at the concentrations of 0.1 μM and 1 μM, or 100 ng/ml of BDNF, a neuronal growth factor (positive control), for 24 hours prior to a 24-hour incubation of 0.1 μM paclitaxel.
The neurite was stained by pIII-tubulin.

HDAC6 = biological target: T2, HDAC6 (Homo sapiens, UniProt Q9UBN7); assay: HDAC6 activity, acetylated-AMC-labeled peptide substrate; format: biochemical
T2 construct: GST (N); host or cells: baculovirus expression system, Sf9 insect cells
T2 sequence (Q9UBN7 1-1215): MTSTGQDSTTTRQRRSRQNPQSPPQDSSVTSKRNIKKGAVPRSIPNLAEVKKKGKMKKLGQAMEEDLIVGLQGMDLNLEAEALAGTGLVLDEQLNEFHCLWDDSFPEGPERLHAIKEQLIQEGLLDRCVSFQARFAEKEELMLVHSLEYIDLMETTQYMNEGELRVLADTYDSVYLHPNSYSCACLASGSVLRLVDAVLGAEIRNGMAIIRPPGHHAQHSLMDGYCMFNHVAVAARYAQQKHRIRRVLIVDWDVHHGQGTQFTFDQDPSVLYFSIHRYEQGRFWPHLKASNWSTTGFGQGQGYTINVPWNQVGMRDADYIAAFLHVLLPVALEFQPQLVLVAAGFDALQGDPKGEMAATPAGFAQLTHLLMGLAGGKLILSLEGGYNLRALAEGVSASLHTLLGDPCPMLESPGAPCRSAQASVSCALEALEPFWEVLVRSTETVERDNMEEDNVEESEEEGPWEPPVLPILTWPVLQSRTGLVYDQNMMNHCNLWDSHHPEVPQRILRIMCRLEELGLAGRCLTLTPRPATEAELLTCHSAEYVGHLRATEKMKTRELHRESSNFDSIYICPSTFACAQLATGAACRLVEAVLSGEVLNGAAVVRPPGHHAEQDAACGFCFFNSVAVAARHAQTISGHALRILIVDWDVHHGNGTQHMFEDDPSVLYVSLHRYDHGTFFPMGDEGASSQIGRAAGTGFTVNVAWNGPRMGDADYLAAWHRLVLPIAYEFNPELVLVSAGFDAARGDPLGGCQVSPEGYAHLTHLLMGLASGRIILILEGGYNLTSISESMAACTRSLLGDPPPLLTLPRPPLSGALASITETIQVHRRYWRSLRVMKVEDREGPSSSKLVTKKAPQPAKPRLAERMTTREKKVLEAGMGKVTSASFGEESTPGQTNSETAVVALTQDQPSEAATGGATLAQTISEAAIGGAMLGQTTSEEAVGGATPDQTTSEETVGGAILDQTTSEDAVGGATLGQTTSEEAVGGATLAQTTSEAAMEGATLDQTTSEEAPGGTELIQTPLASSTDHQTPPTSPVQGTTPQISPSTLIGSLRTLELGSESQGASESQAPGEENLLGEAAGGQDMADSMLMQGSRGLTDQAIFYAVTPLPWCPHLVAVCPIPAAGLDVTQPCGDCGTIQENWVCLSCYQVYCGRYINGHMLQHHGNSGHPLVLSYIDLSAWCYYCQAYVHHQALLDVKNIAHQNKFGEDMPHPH
Method: as §1

[3] = test system: acetylated α-tubulin (Ac-α-tub); assay: Western blot of acetylated α-tubulin in primary DRG cells; format: cell-based, C57BL/6J mice; conditions: 48 hours of treatment, FIG. 2
Method: as §2

[4] = test system: BioMAP Fibrosis panel (REMyoF, SAEMyoF, MyoF systems); assay: BioMAP Fibrosis panel cytokine/biomarker profiles; format: cell-based
Method: The HDAC6 inhibitor compounds were tested in a commercially available platform, BioMAP, for the cytokine profiles in related to tissue injuries. The BioMAP Fibrosis panel included 3 systems stimulated to model TGFβ and TNFα driven myofibroblast differentiation during chronic inflammation and wound healing in different tissue settings. Fibrotic disease of the kidney associated with end-stage renal failure was captured in the REMyoF system consisting of a co-culture of renal proximal tubule epithelial cells and adult fibroblasts. Interstitial lung diseases, including pulmonary fibrotic diseases such as idiopathic pulmonary fibrosis (IPF), was modeled by co-culturing small airway epithelial cells and adult fibroblasts in the SAEMyoF system. Both co-culture systems modeled the paracrine interaction between myofibroblasts and the proximally located epithelial cells, while the impact on fibroblasts alone was interrogated using the monoculture MyoF system. A signature BioMAP profile that is reflective of the changes in protein biomarker readouts within an individual system was generated for each testing compounds. Biomarker readouts selected for therapeutic and biological relevance were predictive for disease outcomes or specific drug effects, and was validated using agents with known clinical efficacy. Each readout was measured quantitatively by immune-based methods that detect protein (e.g., ELISA).

IL-6 = IL-6 in bronchoalveolar lavage fluid, bleomycin model; format: in vivo, mice; conditions: prevention model, 30 mg/kg oral, 21 days; FIG. 6
Method: (§3) The activities of compounds COMPOUND 2 and COMPOUND 33 in preventing and/or treating pulmonary fibrosis were examined using a bleomycin-induced pulmonary fibrosis model, a model that involves deactivated bleomycin hydrolase, elevated oxidative stress, and increased inflammatory cytokines. In the prevention model, mice were administered bleomycin intratracheally an hour in prior to the first oral administration of 30 mg/kg testing compounds. The treatment continued for 21 consecutive days, and mice were sacrificed to examine histological changes of lung tissues were analyzed by H&E staining to evaluate the degree of lung fibrosis.

[5] = test system: bleomycin-induced pulmonary fibrosis; assay: Bleomycin-induced pulmonary fibrosis model, lung histology (H&E); format: in vivo, mice
Method: as §3, with “fibrosis. Additionally, the HDAC6 inhibitors, COMPOUND 2 and COMPOUND 33, were tested for their effect in aiding animal recovery from lung injury and pulmonary fibrosis post injury.” for “fibrosis.”

T1 sequence (Q13547 whole entry): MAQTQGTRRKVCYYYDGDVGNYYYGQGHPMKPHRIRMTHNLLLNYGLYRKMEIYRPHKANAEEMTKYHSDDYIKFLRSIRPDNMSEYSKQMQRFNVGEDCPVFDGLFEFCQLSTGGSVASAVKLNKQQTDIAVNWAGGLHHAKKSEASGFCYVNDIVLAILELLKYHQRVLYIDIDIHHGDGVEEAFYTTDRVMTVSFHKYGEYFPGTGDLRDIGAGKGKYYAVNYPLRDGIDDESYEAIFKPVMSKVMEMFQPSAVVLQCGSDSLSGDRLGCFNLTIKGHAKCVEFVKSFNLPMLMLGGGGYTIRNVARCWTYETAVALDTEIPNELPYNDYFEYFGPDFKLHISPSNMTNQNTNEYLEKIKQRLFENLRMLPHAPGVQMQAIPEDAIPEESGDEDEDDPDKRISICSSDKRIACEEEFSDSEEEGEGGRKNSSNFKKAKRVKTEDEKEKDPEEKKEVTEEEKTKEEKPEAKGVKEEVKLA

IC50 (HDAC1): 4440 nM | Cmax [1]: 2720 ng/mL | AUC ([1]; unit inferred): 11000 ng·h/mL | HDAC6 selectivity (A)/(B) (HDAC6; HDAC1 IC50 / HDAC6 IC50): 134 | IC50 (HDAC6; read-out: HDAC6 IC50 (B)): 33 nM
SMILES: CCc1nc2cc(F)c(/C=C/C(=O)NO)cc2c(=O)n1-c1ccccc1 [Compound 33, (E)-3-(2-ethyl-7-fluoro-4-oxo-3-phenyl-3,4-dihydroquinazolin-6-yl)-N-hydroxyacrylamide]
neurite outgrowth [2]: significantly rescued the neurite outgrowth | tubulin hyperacetylation [3]: tubulin hyperacetylation | fibrosis-related matrix activities ([4]; BioMAP readouts): decreased Collagen III, MMP-9; increased Collagen IV; modulated MMP-1, Collagen I | inflammation-related activities ([4]; BioMAP readouts): decreased M-CSF, sIL-6, MCP-1; modulated IP-10, I-TAC | myofibroblast activation-related activities ([4]; BioMAP readouts): decreased αSMA, E-Cadherin, N-Cadherin | tissue remodeling/wound healing activities ([4]; BioMAP readouts): decreased EGFR, tPA, uPA; modulated sVEGF | activities on cytokines contributing to fibrosis ([4]; compared with nintedanib): marked activities in decreasing TNF-α, IL-1, IL-6, MMP-9, VEGF, and collagen I | IL-6 level in the BALF (IL-6): suppressed IL-6 level in the BALF | development of lung fibrosis ([5]; prevention model, 30 mg/kg oral, 21 consecutive days, FIG. 5): markedly decreased the development of lung fibrosis | recovery from lung injury and pulmonary fibrosis post injury ([5]; treatment post injury): protective effect in pulmonary inflammatory response and pulmonary fibrosis
